Test results taken from ChEMBL document CHEMBL3885881, “DrugMatrix”.

Species on record: Rattus norvegicus
Assay: DrugMatrix - Regimen: Daily Repeat
Assay type: toxicity, organism-based, Sprague-Dawley
Parameters: regimen Daily Repeat, gender Male, age 6-8 weeks
Settings: in vivo, po, route oral GAVAGE, vehicle .5 % CMC; for BASOPHIL / EOSINOPHIL / ERYTHROCYTE COUNT / HEMATOCRIT / HEMOGLOBIN / LEUKOCYTE COUNT / LYMPHOCYTE / MEAN CORPUSCULAR HEMOGLOBIN / MEAN CORPUSCULAR HEMOGLOBIN CONCENTRATION / MEAN CORPUSCULAR VOLUME / MONOCYTE / NEUTROPHIL / PLATELET COUNT: tissue Blood; for ALANINE AMINOTRANSFERASE / ALKALINE PHOSPHATASE / ASPARTATE AMINOTRANSFERASE / BLOOD UREA NITROGEN / CHLORIDE / CHOLESTEROL / CREATINE PHOSPHOKINASE / CREATININE / GLUCOSE / PHOSPHORUS / POTASSIUM / SODIUM / TOTAL PROTEIN: tissue Plasma
[1] = 0 mg/kg, 72 h, dose level Control, time 3 day
[2] = 0 mg/kg, 120 h, dose level Control, time 5 day
[3] = 30 mg/kg, 72 h, dose level Low, time 3 day
[4] = 30 mg/kg, 120 h, dose level Low, time 5 day

CCN(CC)CCNC(=O)c1cc(Cl)c(N)cc1OC [METOCLOPRAMIDE]
BASOPHIL [1]: 0% | EOSINOPHIL [1]: 0.4% | ERYTHROCYTE COUNT [1]: 6.43 x10E6/uL | HEMATOCRIT [1]: 37.36% | HEMOGLOBIN [1]: 13.98 G/DL | LEUKOCYTE COUNT [1]: 13 x10E3/uL | LYMPHOCYTE [1]: 81.4% | MEAN CORPUSCULAR HEMOGLOBIN [1]: 21.9 pg | MEAN CORPUSCULAR HEMOGLOBIN CONCENTRATION [1]: 37.4 G/DL | MEAN CORPUSCULAR VOLUME [1]: 58.52 fL | MONOCYTE [1]: 0.4% | NEUTROPHIL [1]: 18% | PLATELET COUNT [1]: 1386 x10E3/uL | ALANINE AMINOTRANSFERASE [1]: 39.33 u/L | ALKALINE PHOSPHATASE [1]: 283.83 u/L | ASPARTATE AMINOTRANSFERASE [1]: 69.5 u/L | BLOOD UREA NITROGEN [1]: 14.83 mg/dL | CHLORIDE [1]: 107.33 MEQ/L | CHOLESTEROL [1]: 75.17 mg/dL | CREATINE PHOSPHOKINASE [1]: 107.67 u/L | CREATININE [1]: 0.48 mg/dL | GLUCOSE [1]: 172.5 mg/dL | PHOSPHORUS [1]: 10.48 mg/dL | POTASSIUM [1]: 6.9 MEQ/L | SODIUM [1]: 152.33 MEQ/L | TOTAL PROTEIN [1]: 5.9 G/DL | BASOPHIL [2]: 0% | EOSINOPHIL [2]: 0.4% | ERYTHROCYTE COUNT [2]: 6.96 x10E6/uL | HEMATOCRIT [2]: 41.12% | HEMOGLOBIN [2]: 15.24 G/DL | LEUKOCYTE COUNT [2]: 11.06 x10E3/uL | LYMPHOCYTE [2]: 88.6% | MEAN CORPUSCULAR HEMOGLOBIN [2]: 21.96 pg | MEAN CORPUSCULAR HEMOGLOBIN CONCENTRATION [2]: 37.1 G/DL | MEAN CORPUSCULAR VOLUME [2]: 59.12 fL | MONOCYTE [2]: 0.2% | NEUTROPHIL [2]: 10.8% | PLATELET COUNT [2]: 1155.8 x10E3/uL | ALANINE AMINOTRANSFERASE [2]: 36.33 u/L | ALKALINE PHOSPHATASE [2]: 340.33 u/L | ASPARTATE AMINOTRANSFERASE [2]: 68.33 u/L | BLOOD UREA NITROGEN [2]: 15 mg/dL | CHLORIDE [2]: 108.17 MEQ/L | CHOLESTEROL [2]: 74.67 mg/dL | CREATINE PHOSPHOKINASE [2]: 110.67 u/L | CREATININE [2]: 0.47 mg/dL | GLUCOSE [2]: 171.33 mg/dL | PHOSPHORUS [2]: 10.05 mg/dL | POTASSIUM [2]: 6.7 MEQ/L | SODIUM [2]: 155.5 MEQ/L | TOTAL PROTEIN [2]: 6.33 G/DL | BASOPHIL [3]: 0% | EOSINOPHIL [3]: 0% | ERYTHROCYTE COUNT [3]: 6.75 x10E6/uL | HEMATOCRIT [3]: 41.55% | HEMOGLOBIN [3]: 15.45 G/DL | LEUKOCYTE COUNT [3]: 12.45 x10E3/uL | LYMPHOCYTE [3]: 81% | MEAN CORPUSCULAR HEMOGLOBIN [3]: 22.95 pg | MEAN CORPUSCULAR VOLUME [3]: 61.7 fL | MONOCYTE [3]: 0% | NEUTROPHIL [3]: 19% | PLATELET COUNT [3]: 1187 x10E3/uL | ALANINE AMINOTRANSFERASE [3]: 40.67 u/L | ALKALINE PHOSPHATASE [3]: 299.33 u/L | ASPARTATE AMINOTRANSFERASE [3]: 95.67 u/L | BLOOD UREA NITROGEN [3]: 12.33 mg/dL | CHLORIDE [3]: 107.33 MEQ/L | CHOLESTEROL [3]: 78.67 mg/dL | CREATINE PHOSPHOKINASE [3]: 421.67 u/L | CREATININE [3]: 0.77 mg/dL | GLUCOSE [3]: 175.67 mg/dL | PHOSPHORUS [3]: 11.53 mg/dL | POTASSIUM [3]: 7.6 MEQ/L | SODIUM [3]: 150.67 MEQ/L | TOTAL PROTEIN [3]: 6.13 G/DL | BASOPHIL [4]: 0% | EOSINOPHIL [4]: 0% | ERYTHROCYTE COUNT [4]: 7 x10E6/uL | HEMATOCRIT [4]: 41.57% | HEMOGLOBIN [4]: 15.33 G/DL | LEUKOCYTE COUNT [4]: 13.57 x10E3/uL | LYMPHOCYTE [4]: 91% | MEAN CORPUSCULAR HEMOGLOBIN [4]: 21.93 pg | MEAN CORPUSCULAR HEMOGLOBIN CONCENTRATION [4]: 36.87 G/DL | MEAN CORPUSCULAR VOLUME [4]: 59.4 fL | MONOCYTE [4]: 0.33% | NEUTROPHIL [4]: 8.67% | PLATELET COUNT [4]: 1231.67 x10E3/uL | ALANINE AMINOTRANSFERASE [4]: 41 u/L | ALKALINE PHOSPHATASE [4]: 236.67 u/L | ASPARTATE AMINOTRANSFERASE [4]: 70.33 u/L | BLOOD UREA NITROGEN [4]: 14.67 mg/dL | CHLORIDE [4]: 104.33 MEQ/L | CHOLESTEROL [4]: 63.33 mg/dL | CREATINE PHOSPHOKINASE [4]: 157 u/L | CREATININE [4]: 0.5 mg/dL | GLUCOSE [4]: 156.33 mg/dL | PHOSPHORUS [4]: 9.97 mg/dL | POTASSIUM [4]: 6.37 MEQ/L | SODIUM [4]: 151.67 MEQ/L | TOTAL PROTEIN [4]: 6.23 G/DL
